Molecules are shown by their SMILES. Like-named read-outs stand apart in the source and are kept apart here. A value given as a limit tells only on which side of the number the result lay.

These results are taken from patent US20250235543A1, “MODIFIED PROTEINS AND PROTEIN DEGRADERS” (Cullgen (Shanghai), Inc., priority 2021, published 2025).

In one assay the target is T1, CDK4 (Homo sapiens, UniProt P11802).
T1 construct: endogenous in cells; host or cells: Calu-1
The assay is described as follows: CDK4 percentage degradation in Calu-1 cells (immunoblotting). Format: cell-based. Particulars: for inhibition at 0.2 µM: read-out: CDK4 Degradation (200 nM); for inhibition at 10 µM: read-out: CDK4 Degradation (10 μM). The gist of the method:
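CDK4 degradation was measured by immunoblotting. Cells were washed in cold PBS and lysed in RIPA buffer with inhibitors for 30 min at 4° C., then spun at 13,000 rpm to clear. After BCA protein determination, lysates were heated at 99° C. for 5 min in Laemmli buffer, resolved on SDS-PAGE, imaged on a ChemiDoc MP with ECL substrate, and band intensities quantified.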
(In general: Immunoblotting shows a protein as a band on a membrane.)

A further assay has as its system cyclin D1. The assay is described as follows: Cyclin D1 percentage degradation in Calu-1 cells (immunoblotting). Particulars: 16 hours. The assay is classed as cell-based. The gist of the method: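 Cyclin D1 degradation was assessed by western blot. Clarified lysates, obtained by RIPA lysis with inhibitors and centrifugation at 13,000 rpm, were normalized by BCA protein assay and separated by SDS-PAGE. Bands were detected with Western ECL Substrate on a Bio-Rad ChemiDoc MP Imaging system and quantified in Image Lab software to derive percentage degradation.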

T1 sequence (P11802 2-303 limits assumed): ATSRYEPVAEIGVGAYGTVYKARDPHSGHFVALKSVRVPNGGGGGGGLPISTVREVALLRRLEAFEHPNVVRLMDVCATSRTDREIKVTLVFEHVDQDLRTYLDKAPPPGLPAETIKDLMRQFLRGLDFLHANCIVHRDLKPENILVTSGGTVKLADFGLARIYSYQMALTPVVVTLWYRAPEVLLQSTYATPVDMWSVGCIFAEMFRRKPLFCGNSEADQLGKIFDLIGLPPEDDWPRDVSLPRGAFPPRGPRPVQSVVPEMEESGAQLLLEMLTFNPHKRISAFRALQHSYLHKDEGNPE
T1 sequence (P24385 whole entry partner): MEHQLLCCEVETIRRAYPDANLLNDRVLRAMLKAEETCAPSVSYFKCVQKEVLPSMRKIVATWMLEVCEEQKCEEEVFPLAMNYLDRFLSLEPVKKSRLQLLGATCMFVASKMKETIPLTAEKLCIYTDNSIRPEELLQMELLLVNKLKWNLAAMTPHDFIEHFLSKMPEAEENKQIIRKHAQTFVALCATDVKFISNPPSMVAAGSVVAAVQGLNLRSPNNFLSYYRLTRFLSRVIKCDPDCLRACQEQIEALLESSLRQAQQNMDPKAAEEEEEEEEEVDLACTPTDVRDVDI
T1 sequence (Q16531 2-1140 limits assumed, further chain): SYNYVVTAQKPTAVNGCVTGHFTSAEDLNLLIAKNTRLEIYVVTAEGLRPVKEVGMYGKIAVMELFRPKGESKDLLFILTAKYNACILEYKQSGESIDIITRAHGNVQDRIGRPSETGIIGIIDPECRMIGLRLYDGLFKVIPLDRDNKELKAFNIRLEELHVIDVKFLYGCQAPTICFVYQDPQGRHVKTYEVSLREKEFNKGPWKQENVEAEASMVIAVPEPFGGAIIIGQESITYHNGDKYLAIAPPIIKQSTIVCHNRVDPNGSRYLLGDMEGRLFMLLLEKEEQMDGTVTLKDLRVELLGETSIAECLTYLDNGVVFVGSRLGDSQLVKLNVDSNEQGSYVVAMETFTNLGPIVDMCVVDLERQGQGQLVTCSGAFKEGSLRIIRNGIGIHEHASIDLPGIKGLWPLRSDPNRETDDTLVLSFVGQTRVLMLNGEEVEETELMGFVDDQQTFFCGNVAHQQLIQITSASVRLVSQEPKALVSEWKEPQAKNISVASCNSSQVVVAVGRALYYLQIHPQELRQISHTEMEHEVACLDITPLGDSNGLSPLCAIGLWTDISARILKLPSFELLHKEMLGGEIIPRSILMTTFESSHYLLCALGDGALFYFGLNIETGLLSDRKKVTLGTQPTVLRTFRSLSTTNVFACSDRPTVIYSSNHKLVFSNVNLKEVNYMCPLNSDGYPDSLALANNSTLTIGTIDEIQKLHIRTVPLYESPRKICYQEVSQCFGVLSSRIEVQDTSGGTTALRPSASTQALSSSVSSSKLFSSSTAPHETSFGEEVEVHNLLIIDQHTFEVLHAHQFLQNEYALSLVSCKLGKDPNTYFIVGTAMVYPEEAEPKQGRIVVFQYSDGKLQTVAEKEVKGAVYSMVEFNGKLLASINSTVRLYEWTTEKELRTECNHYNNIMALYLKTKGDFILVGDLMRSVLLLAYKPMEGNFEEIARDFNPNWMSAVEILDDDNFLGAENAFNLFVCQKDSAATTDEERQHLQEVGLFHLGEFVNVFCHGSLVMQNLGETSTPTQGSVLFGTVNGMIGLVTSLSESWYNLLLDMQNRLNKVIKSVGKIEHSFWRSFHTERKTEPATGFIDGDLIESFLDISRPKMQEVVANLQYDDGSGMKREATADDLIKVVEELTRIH

`CC(=O)c1c(C)c2cnc(Nc3ccc(N4CCN(CC(=O)NCCOCCOCCOCCOCCOCCNc5ccc(C(=O)Nc6ncc(Cl)s6)c(C)c5)CC4)cn3)nc2n(C2CCCC2)c1=O` [CPD-005, 4-((1-(4-(6-((6-Acetyl-8-cyclopentyl-5-methyl-7-oxo-7,8-dihydropyrido[2,3-d]pyrimidin-2-yl)amino)pyridin-3-yl)piperazin-1-yl)-2-oxo-6,9,12,15,18-pentaoxa-3-azaicosan-20-yl)amino)-N-(5-chlorothiazol-2-yl)-2-methylbenzamide]: the inhibition at 0.2 µM at CDK4 (Calu-1 cells, 200 nM, 16 hours) is less than 30%. The “CyclinD1 Degradation (200 nM)” value with cyclin D1 is on record as “D (protein percentage degradation <30%)”.
Consider `CC(=O)c1c(C)c2cnc(Nc3ccc(N4CCN(CC(=O)NCCOCCOCCOCCNc5ccc(C)c(C(=O)Nc6nc(C)c(C)s6)c5)CC4)cn3)nc2n(C2CCCC2)c1=O` [CPD-127, 5-((1-(4-(6-((6-Acetyl-8-cyclopentyl-5-methyl-7-oxo-7,8-dihydropyrido[2,3-d]pyrimidin-2-yl)amino)pyridin-3-yl)piperazin-1-yl)-2-oxo-6,9,12-trioxa-3-azatetradecan-14-yl)amino)-N-(4,5-dimethylthiazol-2-yl)-2-methylbenzamide], for which the inhibition at 0.2 µM on CDK4 (Calu-1, 16 h) lay within 30 to 50%. Besides, the “CyclinD1 Degradation (200 nM)” value in the assay on cyclin D1 was “C (protein percentage degradation <50%, and >=30%)”.
For the compound `COc1ccc(NC(=O)c2ccccc2NC(=O)CCOCCN2CCC(NC(=O)CN3CCN(c4ccc(Nc5ncc6c(C)c(C(C)=O)c(=O)n(C7CCCC7)c6n5)nc4)CC3)CC2)nn1` [CPD-348, 2-(3-(2-(4-(2-(4-(6-((6-Acetyl-8-cyclopentyl-5-methyl-7-oxo-7,8-dihydropyrido[2,3-d]pyrimidin-2-yl)amino)pyridin-3-yl)piperazin-1-yl)acetamido)piperidin-1-yl)ethoxy)propanamido)-N-(6-methoxypyridazin-3-yl)benzamide], the inhibition at 0.2 µM at CDK4 (Calu-1 cells, 200 nM, 16 hours) was less than 30%. For the same compound, in the assay on cyclin D1, the “CyclinD1 Degradation (200 nM)” value is listed as “D (protein percentage degradation <30%)”.
`CC(=O)c1c(C)c2cnc(Nc3ccc(N4CCN(CC(=O)NCCCCNc5ccc(C)c(C(=O)Nc6nc(C)c(C)s6)c5)CC4)cn3)nc2n(C2CCCC2)c1=O` [CPD-088, 5-((4-(2-(4-(6-((6-Acetyl-8-cyclopentyl-5-methyl-7-oxo-7,8-dihydropyrido[2,3-d]pyrimidin-2-yl)amino)pyridin-3-yl)piperazin-1-yl)acetamido)butyl)amino)-N-(4,5-dimethylthiazol-2-yl)-2-methylbenzamide]: the inhibition at 0.2 µM on CDK4 (Calu-1 cells, 200 nM, 16 hours) was less than 30%. For the same compound, the “CyclinD1 Degradation (200 nM)” value in the assay with cyclin D1 is “D (protein percentage degradation <30%)”.
On the same counts, the results for `CNc1ccc(C(=O)Nc2nc(C)c(C)s2)c(NC(=O)CCOCCOCCNC(=O)CN2CCN(c3ccc(Nc4ncc5c(C)c(C(C)=O)c(=O)n(C6CCCC6)c5n4)nc3)CC2)c1` [CPD-164, 2-(3-(2-(2-(2-(4-(6-((6-Acetyl-8-cyclopentyl-5-methyl-7-oxo-7,8-dihydropyrido[2,3-d]pyrimidin-2-yl)amino)pyridin-3-yl)piperazin-1-yl)acetamido)ethoxy)ethoxy)propanamido)-N-(4,5-dimethylthiazol-2-yl)-4-(methylamino)benzamide] are 50 to 80% and “A (protein percentage degradation >=80%)”.
In the case of `CNc1ccc(NC(=O)CCOCCOCCNC(=O)CN2CCN(c3ccc(Nc4ncc5c(C)c(C(C)=O)c(=O)n(C6CCCC6)c5n4)nc3)CC2)c(C(=O)Nc2nc(C)c(C)s2)c1` [CPD-150, 2-(3-(2-(2-(2-(4-(6-((6-Acetyl-8-cyclopentyl-5-methyl-7-oxo-7,8-dihydropyrido[2,3-d]pyrimidin-2-yl)amino)pyridin-3-yl)piperazin-1-yl)acetamido)ethoxy)ethoxy)propanamido)-N-(4,5-dimethylthiazol-2-yl)-5-(methylamino)benzamide], the inhibition at 0.2 µM at CDK4 (Calu-1 cells, 200 nM, 16 hours) fell in the range of 50 to 80%. In addition, the “CyclinD1 Degradation (200 nM)” value in the assay with cyclin D1 is reported as “A (protein percentage degradation >=80%)”.
Consider `CC(=O)c1c(C)c2cnc(Nc3ccc(N4CCN(CC(=O)NCCOCCOCCOCCOCCOCCOCCC(=O)Nc5ccccc5C(=O)Nc5nc(C)c(C)s5)CC4)cn3)nc2n(C2CCCC2)c1=O` [CPD-173, 2-(1-(4-(6-((6-Acetyl-8-cyclopentyl-5-methyl-7-oxo-7,8-dihydropyrido[2,3-d]pyrimidin-2-yl)amino)pyridin-3-yl)piperazin-1-yl)-2-oxo-6,9,12,15,18,21-hexaoxa-3-azatetracosan-24-amido)-N-(4,5-dimethylthiazol-2-yl)benzamide], for which, at CDK4 (Calu-1 cells, 200 nM, 16 hours), the inhibition at 0.2 µM was more than 80%. Moreover, the “CyclinD1 Degradation (200 nM)” value with cyclin D1 is on record as “A (protein percentage degradation >=80%)”.
On to `CC(=O)c1c(C)c2cnc(Nc3ccc(N4CCN(CC(=O)NCCOCCOCCC(=O)Nc5ccccc5C(=O)Nc5ccc(F)cn5)CC4)cn3)nc2n(C2CCCC2)c1=O` [CPD-081, 2-(3-(2-(2-(2-(4-(6-((6-Acetyl-8-cyclopentyl-5-methyl-7-oxo-7,8-dihydropyrido[2,3-d]pyrimidin-2-yl)amino)pyridin-3-yl)piperazin-1-yl)acetamido)ethoxy)ethoxy)propanamido)-N-(5-fluoropyridin-2-yl)benzamide], for which the inhibition at 0.2 µM on CDK4 (Calu-1 cells, 200 nM, 16 hours) is more than 80%. Also, the “CyclinD1 Degradation (200 nM)” value in the assay on cyclin D1 is on record as “A (protein percentage degradation >=80%)”.
Turning to `CC(=O)c1c(C)c2cnc(Nc3ccc(N4CCN(CC(=O)NCCOCCOCCOCCNC(=O)COc5ccc(C(=O)Nc6ncc(C)s6)c(C)c5)CC4)cn3)nc2n(C2CCCC2)c1=O` [CPD-040, 4-((17-(4-(6-((6-Acetyl-8-cyclopentyl-5-methyl-7-oxo-7,8-dihydropyrido[2,3-d]pyrimidin-2-yl)amino)pyridin-3-yl)piperazin-1-yl)-2,16-dioxo-6,9,12-trioxa-3,15-diazaheptadecyl)oxy)-2-methyl-N-(5-methylthiazol-2-yl)benzamide], at CDK4 (Calu-1 cells, 200 nM, 16 hours), the inhibition at 0.2 µM was less than 30%. Also, the “CyclinD1 Degradation (200 nM)” value in the assay on cyclin D1 is “D (protein percentage degradation <30%)”.
In the case of `Cc1nc(NC(=O)c2ccccc2NC(=O)CCOCCOCCNC(=O)CN2CCN(c3ccc(Nc4ncc5cc6n(c5n4)C4(CCCCC4)CNC6=O)nc3)CC2)sc1C` [CPD-323, N-(4,5-Dimethylthiazol-2-yl)-2-(3-(2-(2-(2-(4-(6-((6′-oxo-7′,8′-dihydro-6′H-spiro[cyclohexane-1,9′-pyrazino[1′,2′:1,5]pyrrolo[2,3-d]pyrimidin]-2′-yl)amino)pyridin-3-yl)piperazin-1-yl)acetamido)ethoxy)ethoxy)propanamido)benzamide], the inhibition at 10 µM on CDK4 (Calu-1 cells, 16 hours) fell in the range of 50 to 80%. Further, the “CyclinD1 Degradation (10 μM)” value with cyclin D1 is “A (protein percentage degradation >= 80%)”.
For `Cc1nc(NC(=O)c2ccccc2NC(=O)CCOCCOCCOCCOCCOCCNC(=O)CN2CCN(c3ccc(Nc4ncc(F)c(-c5cc(F)c6nc(C)n(C(C)C)c6c5)n4)nc3)CC2)sc1C` [CPD-312, N-(4,5-Dimethylthiazol-2-yl)-2-(1-(4-(6-((5-fluoro-4-(4-fluoro-1-isopropyl-2-methyl-1H-benzo[d]imidazol-6-yl)pyrimidin-2-yl)amino)pyridin-3-yl)piperazin-1-yl)-2-oxo-6,9,12,15,18-pentaoxa-3-azahenicosan-21-amido)benzamide], the inhibition at 10 µM at CDK4 (Calu-1 cells, 16 hours) was less than 30%. In addition, the “CyclinD1 Degradation (10 μM)” value with cyclin D1 is recorded as “A (protein percentage degradation >= 80%)”.
For the compound `CC(=O)c1c(C)c2cnc(Nc3ccc(N4CCN(CC(=O)NCCOCCOCCC(=O)Nc5cc6c(cc5C(=O)Nc5ccc(C)cn5)CCN6)CC4)cn3)nc2n(C2CCCC2)c1=O` [CPD-360, 6-(3-(2-(2-(2-(4-(6-((6-Acetyl-8-cyclopentyl-5-methyl-7-oxo-7,8-dihydropyrido[2,3-d]pyrimidin-2-yl)amino)pyridin-3-yl)piperazin-1-yl)acetamido)ethoxy)-ethoxy)propanamido)-N-(5-methylpyridin-2-yl)indoline-5-carboxamide], the inhibition at 0.2 µM on CDK4 (Calu-1 cells, 200 nM, 16 hours) was more than 80%. Besides, the “CyclinD1 Degradation (200 nM)” value in the assay on cyclin D1 is listed as “A (protein percentage degradation >=80%)”.
Consider `Cc1nc(NC(=O)c2ccccc2NC(=O)CCOCCNC(=O)CN2CCN(c3ccc(Nc4ncc5cc6n(c5n4)C4(CCCCC4)CNC6=O)nc3)CC2)sc1C` [CPD-322, N-(4,5-Dimethylthiazol-2-yl)-2-(3-(2-(2-(4-(6-((6′-oxo-7′,8′-dihydro-6′H-spiro[cyclohexane-1,9′-pyrazino[1′,2′:1,5]pyrrolo[2,3-d]pyrimidin]-2′-yl)amino)pyridin-3-yl)piperazin-1-yl)acetamido)ethoxy)propanamido)benzamide], for which, on CDK4 (Calu-1 cells, 16 hours), the inhibition at 10 µM was 50 to 80%. The “CyclinD1 Degradation (10 μM)” value with cyclin D1 is reported as “A (protein percentage degradation >= 80%)”.
For `CC(=O)c1c(C)c2cnc(Nc3ccc(N4CCN(CC(=O)NCCCNc5cccc(C(=O)Nc6nc(C)c(C)s6)c5C)CC4)cn3)nc2n(C2CCCC2)c1=O` [CPD-098, 3-((3-(2-(4-(6-((6-Acetyl-8-cyclopentyl-5-methyl-7-oxo-7,8-dihydropyrido[2,3-d]pyrimidin-2-yl)amino)pyridin-3-yl)piperazin-1-yl)acetamido)propyl)amino)-N-(4,5-dimethylthiazol-2-yl)-2-methylbenzamide], the inhibition at 0.2 µM on CDK4 (Calu-1 cells, 200 nM, 16 hours) is less than 30%. For the same compound, in the assay on cyclin D1, the “CyclinD1 Degradation (200 nM)” value is “D (protein percentage degradation <30%)”.
For the compound `Cc1nc(NC(=O)c2ccccc2NC(=O)CCCCNC(=O)CN2CCN(c3ccc(Nc4ncc(F)c(-c5cc(F)c6nc(C)n(C(C)C)c6c5)n4)nc3)CC2)sc1C` [CPD-303, N-(4,5-Dimethylthiazol-2-yl)-2-(5-(2-(4-(6-((5-fluoro-4-(4-fluoro-1-isopropyl-2-methyl-1H-benzo[d]imidazol-6-yl)pyrimidin-2-yl)amino)pyridin-3-yl)piperazin-1-yl)acetamido)pentanamido)benzamide], the inhibition at 10 µM on CDK4 (Calu-1 cells, 16 hours) was less than 30%. The “CyclinD1 Degradation (10 μM)” value with cyclin D1 is “D (protein percentage degradation < 30%)”.
